Experimental data from ChEMBL document CHEMBL4483862, “Open-source discovery of chemical leads for next-generation chemoprotective antimalarials” (2018).

System: Plasmodium berghei
Assay: Luciferase/luciferin-expressing antifolate-resistant parasites were used to infect a culture of HepG2 cells that were pre-incubated with compounds. Infected hepatocytes emit light due to the luciferase reaction. Assay results are presented as the percent inhibition of light emission compared to control. […]
Format: functional
Conditions: sporozoite; for IC90: read-out: LUCIFERASE INFECTION ASSAY - IC90

SMILES	IC90	also measured
CCOC(=O)CN1N=C(/C=C/c2ccc(C(C)C)cc2)CCC1=O	> 10 µM	IC50 (HEPG2TOX_HILL_SLOPE 1.7, HEPG2TOX_R_SQUARED 0.981, read-out: LUCIFERASE INFECTION ASSAY - IC50): > 10 µM
O=C(Nc1cc(Cl)cc(Cl)c1)Nc1cc(Cl)cc(Cl)c1	1.35 µM	IC50 (HEPG2TOX_HILL_SLOPE 1.67, HEPG2TOX_R_SQUARED 0.958, PBLUC_HILL_SLOPE 0.797, PBLUC_R_SQUARED 0.657, read-out: LUCIFERASE INFECTION ASSAY - IC50): 0.0855 µM
COc1ccc(-c2cnc3ccc(NCC4CC4)nn23)cc1OC	2.25 µM	IC50 (HEPG2TOX_HILL_SLOPE 1.71, HEPG2TOX_R_SQUARED 0.949, PBLUC_HILL_SLOPE 2.62, PBLUC_R_SQUARED 0.845, read-out: LUCIFERASE INFECTION ASSAY - IC50): 0.972 µM
CCCn1nc(C(=O)NCCc2ccc(-n3cccn3)cc2)c2ccccc2c1=O	4.06 µM	IC50 (HEPG2TOX_HILL_SLOPE 1.69, HEPG2TOX_R_SQUARED 0.716, PBLUC_HILL_SLOPE 8.19, PBLUC_R_SQUARED 0.628, read-out: LUCIFERASE INFECTION ASSAY - IC50): 3.1 µM
Cc1ccc2nc(NC(=O)c3cccc(F)c3)c(C(=O)NC3CCCCC3)n2c1	0.924 µM	IC50 (HEPG2TOX_HILL_SLOPE 1.74, HEPG2TOX_R_SQUARED 0.865, PBLUC_HILL_SLOPE 15.6, PBLUC_R_SQUARED 0.75, read-out: LUCIFERASE INFECTION ASSAY - IC50): 0.803 µM
COc1cc(OC)cc(-c2cnc3cnc(-c4ccccc4C)cn23)c1	2.62 µM	IC50 (HEPG2TOX_HILL_SLOPE 1.68, HEPG2TOX_R_SQUARED 0.933, PBLUC_HILL_SLOPE 2.21, PBLUC_R_SQUARED 0.835, read-out: LUCIFERASE INFECTION ASSAY - IC50): 0.97 µM
O=C(C1CC1)N1CCc2nc(NCc3cccc(Oc4ccccc4)c3)ncc2C1	7.02 µM	IC50 (HEPG2TOX_HILL_SLOPE 1.68, HEPG2TOX_R_SQUARED 0.88, PBLUC_HILL_SLOPE 2.35, PBLUC_R_SQUARED 0.234, read-out: LUCIFERASE INFECTION ASSAY - IC50): 2.75 µM
CCN1C(=O)N(CCCc2cccnc2)C(=O)C12CCN(Cc1ccc3c(c1)Cc1ccccc1-3)CC2	2.58 µM	IC50 (HEPG2TOX_HILL_SLOPE 1.68, HEPG2TOX_R_SQUARED 0.934, PBLUC_HILL_SLOPE 11.7, PBLUC_R_SQUARED 0.742, read-out: LUCIFERASE INFECTION ASSAY - IC50): 2.14 µM
N#Cc1ncn(-c2nc(-c3ccccn3)nc3sc(-c4ccccc4)cc23)n1	7.91 µM	IC50 (HEPG2TOX_HILL_SLOPE 1.72, HEPG2TOX_R_SQUARED 0.411, PBLUC_HILL_SLOPE 3.83, PBLUC_R_SQUARED 0.832, read-out: LUCIFERASE INFECTION ASSAY - IC50): 4.46 µM
Cc1ccc(-c2csc(NC(=O)/C=C/c3cnn(C)c3)n2)o1	4.35 µM	IC50 (HEPG2TOX_HILL_SLOPE 1.69, HEPG2TOX_R_SQUARED 0.984, PBLUC_HILL_SLOPE 1.61, PBLUC_R_SQUARED 0.8, read-out: LUCIFERASE INFECTION ASSAY - IC50): 1.11 µM
CC(C)c1ccc(Nc2nccc3nc(-c4cccc(C(C)C)c4)[nH]c23)cc1	> 10 µM	IC50 (HEPG2TOX_HILL_SLOPE 1.74, HEPG2TOX_R_SQUARED 0.684, PBLUC_HILL_SLOPE 1.1, PBLUC_R_SQUARED 0.805, read-out: LUCIFERASE INFECTION ASSAY - IC50): 2.41 µM
CNc1nc2cnc(Nc3cccc(NC(C)=O)c3)cc2n1-c1ccccc1	> 10 µM	IC50 (HEPG2TOX_HILL_SLOPE 1.67, HEPG2TOX_R_SQUARED 0.953, read-out: LUCIFERASE INFECTION ASSAY - IC50): > 10 µM
COc1nc2c(c(-c3ccc(SC)cc3)c1C#N)Cc1ccccc1-2	> 9.58 µM	IC50 (HEPG2TOX_HILL_SLOPE 1.73, HEPG2TOX_R_SQUARED 0.894, PBLUC_HILL_SLOPE 2.49, PBLUC_R_SQUARED 0.21, read-out: LUCIFERASE INFECTION ASSAY - IC50): 5.33 µM
COc1ccc(C(=O)N(c2nc3ccccc3s2)c2c(C)cccc2C)cc1	> 10 µM	IC50 (HEPG2TOX_HILL_SLOPE 1.69, HEPG2TOX_R_SQUARED 0.759, PBLUC_HILL_SLOPE 12.9, PBLUC_R_SQUARED 0.198, read-out: LUCIFERASE INFECTION ASSAY - IC50): 9.04 µM
N#Cc1ccc(C(=O)Nc2nc3ccc(SC(F)F)cc3s2)cc1	3.39 µM	IC50 (HEPG2TOX_HILL_SLOPE 1.69, HEPG2TOX_R_SQUARED 0.978, PBLUC_HILL_SLOPE 16.3, PBLUC_R_SQUARED 0.469, read-out: LUCIFERASE INFECTION ASSAY - IC50): 2.96 µM
Cc1c(C)c(C)c(S(=O)(=O)Nc2ccc3c[nH]nc3c2)c(C)c1C	> 10 µM	IC50 (HEPG2TOX_HILL_SLOPE 1.73, HEPG2TOX_R_SQUARED 0.711, PBLUC_HILL_SLOPE 1.55, PBLUC_R_SQUARED 0.469, read-out: LUCIFERASE INFECTION ASSAY - IC50): 4.27 µM

SMILES	IC90	also measured
c1ccc2c(-c3cc(Nc4ccc5[nH]ccc5c4)ncn3)cccc2c1	4.49 µM	IC50 (HEPG2TOX_HILL_SLOPE 1.68, HEPG2TOX_R_SQUARED 0.859, PBLUC_HILL_SLOPE 1.6, PBLUC_R_SQUARED 0.806, read-out: LUCIFERASE INFECTION ASSAY - IC50): 1.13 µM
Cc1ccc(N/N=C(\C=N\N)C(=O)c2ccc(Cl)cc2)cc1	> 10.5 µM	IC50 (HEPG2TOX_HILL_SLOPE 1.68, HEPG2TOX_R_SQUARED 0.854, PBLUC_HILL_SLOPE 3.07, PBLUC_R_SQUARED 0.149, read-out: LUCIFERASE INFECTION ASSAY - IC50): 5.16 µM
CN(C)c1ccc(Nc2cc(-c3cccc4ccccc34)ncn2)cc1	6.64 µM	IC50 (HEPG2TOX_HILL_SLOPE 1.74, HEPG2TOX_R_SQUARED 0.777, PBLUC_HILL_SLOPE 1.75, PBLUC_R_SQUARED 0.668, read-out: LUCIFERASE INFECTION ASSAY - IC50): 1.9 µM
COc1cccc(-c2ccc3nnc(-c4ccc5c(c4)OCO5)n3c2)c1	0.981 µM	IC50 (HEPG2TOX_HILL_SLOPE 1.68, HEPG2TOX_R_SQUARED 0.984, PBLUC_HILL_SLOPE 2.05, PBLUC_R_SQUARED 0.784, read-out: LUCIFERASE INFECTION ASSAY - IC50): 0.337 µM
O=C(OCc1cnn(-c2ccccc2)c1)c1cc([N+](=O)[O-])ccc1N1CCCC1	> 10 µM	IC50 (HEPG2TOX_HILL_SLOPE 1.67, HEPG2TOX_R_SQUARED 0.935, PBLUC_HILL_SLOPE 0.776, PBLUC_R_SQUARED 0.413, read-out: LUCIFERASE INFECTION ASSAY - IC50): 9.4 µM
COc1ccc(-c2cn3c(-c4ccc5ncccc5c4)cnc3cn2)cn1	4.4 µM	IC50 (HEPG2TOX_HILL_SLOPE 1.73, HEPG2TOX_R_SQUARED 0.987, PBLUC_HILL_SLOPE 1.52, PBLUC_R_SQUARED 0.763, read-out: LUCIFERASE INFECTION ASSAY - IC50): 1.04 µM
CN(C)CCNC(=O)c1ccc(-c2cn3c(-c4ccc(Cl)cc4)cnc3cn2)cc1	3.79 µM	IC50 (HEPG2TOX_HILL_SLOPE 1.7, HEPG2TOX_R_SQUARED 0.889, PBLUC_HILL_SLOPE 9.39, PBLUC_R_SQUARED 0.389, read-out: LUCIFERASE INFECTION ASSAY - IC50): 3 µM
Cc1ccc(C)n1-c1nc2ccc(C(=O)NCC(O)c3ccccc3)cc2s1 (centres undefined)	4.67 µM	IC50 (HEPG2TOX_HILL_SLOPE 1.7, HEPG2TOX_R_SQUARED 0.986, PBLUC_HILL_SLOPE 2.65, PBLUC_R_SQUARED 0.703, read-out: LUCIFERASE INFECTION ASSAY - IC50): 2.04 µM
Cc1sc2nc3c4ccccc4c(Cl)nn3c(=O)c2c1C	> 10 µM	IC50 (HEPG2TOX_HILL_SLOPE 1.74, HEPG2TOX_R_SQUARED 0.905, PBLUC_HILL_SLOPE 1.87, PBLUC_R_SQUARED 0.353, read-out: LUCIFERASE INFECTION ASSAY - IC50): 5.64 µM
COc1ccc(Nc2cc(C)nc(Nc3ccc(OC)cc3)n2)cc1	3.93 µM	IC50 (HEPG2TOX_HILL_SLOPE 1.69, HEPG2TOX_R_SQUARED 0.922, PBLUC_HILL_SLOPE 13, PBLUC_R_SQUARED 0.323, read-out: LUCIFERASE INFECTION ASSAY - IC50): 3.32 µM
CCN(c1ccc(NC(=O)CCc2ccccc2Cl)cc1)C(C)C	> 10 µM	IC50 (HEPG2TOX_HILL_SLOPE 1.73, HEPG2TOX_R_SQUARED 0.92, read-out: LUCIFERASE INFECTION ASSAY - IC50): > 10 µM
CCOc1cc2c(cc1OCC)CN(c1cnn(-c3nc4ccccc4[nH]3)c(=O)c1Cl)CC2	2.69 µM	IC50 (HEPG2TOX_HILL_SLOPE 1.71, HEPG2TOX_R_SQUARED 0.884, PBLUC_HILL_SLOPE 7.85, 14.7, PBLUC_R_SQUARED 0.450, 0.666, read-out: LUCIFERASE INFECTION ASSAY - IC50): 2.1 µM
CCc1ccccc1Nc1c(Cl)c(C)nc2ncnn12	> 11.5 µM	IC50 (HEPG2TOX_HILL_SLOPE 1.69, HEPG2TOX_R_SQUARED 0.869, PBLUC_HILL_SLOPE 4.69, PBLUC_R_SQUARED 0.317, read-out: LUCIFERASE INFECTION ASSAY - IC50): 7.45 µM
Cc1ccc(NCc2c(Cl)nc3sccn23)c(C)c1	> 11.3 µM	IC50 (HEPG2TOX_HILL_SLOPE 1.69, HEPG2TOX_R_SQUARED 0.916, PBLUC_HILL_SLOPE 2.14, PBLUC_R_SQUARED 0.29, read-out: LUCIFERASE INFECTION ASSAY - IC50): 10.3 µM
CC/C(=N\OC(=O)c1cccc(C(F)(F)F)c1)c1ccc(-c2ccccc2F)cc1	> 7.94 µM	IC50 (HEPG2TOX_HILL_SLOPE 1.72, HEPG2TOX_R_SQUARED 0.909, PBLUC_HILL_SLOPE 3.88, PBLUC_R_SQUARED 0.158, read-out: LUCIFERASE INFECTION ASSAY - IC50): 6.84 µM
Cc1c(-c2ccccc2)sc(N)c1C#N	> 15.4 µM	IC50 (HEPG2TOX_HILL_SLOPE 1.71, HEPG2TOX_R_SQUARED 0.831, PBLUC_HILL_SLOPE 15.7, PBLUC_R_SQUARED 0.066, read-out: LUCIFERASE INFECTION ASSAY - IC50): 14.9 µM
